# Patent publication US12319655B2, “RAF kinase inhibitors and methods of use thereof” (Deciphera Pharmaceuticals, LLC, priority 2021, dated 2025)
# Key:
# H2405 cells = test: H2405 Cell Proliferation Assay (1); format: cell-based; settings: Homo sapiens, NCI-H2405
# In short: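 Viability was read by resazurin reduction (ex 540 nm, em 600 nm; 5-6 h with 40 μL of 440 μM stock) after 67-72 h compound exposure at 37 °C.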
# [1] = target: C-Raf kinase (SEQ. ID NO: 3) (Homo sapiens (Human), UniProt P04049, Y340D/Y341D); test: Biochemical Assay for C-Raf (1); settings: Table J, biochemical assay (1); read-out: CRAF (1)
# C-Raf kinase (SEQ. ID NO: 3), sequence (P04049 307-648 Y340D/Y341D): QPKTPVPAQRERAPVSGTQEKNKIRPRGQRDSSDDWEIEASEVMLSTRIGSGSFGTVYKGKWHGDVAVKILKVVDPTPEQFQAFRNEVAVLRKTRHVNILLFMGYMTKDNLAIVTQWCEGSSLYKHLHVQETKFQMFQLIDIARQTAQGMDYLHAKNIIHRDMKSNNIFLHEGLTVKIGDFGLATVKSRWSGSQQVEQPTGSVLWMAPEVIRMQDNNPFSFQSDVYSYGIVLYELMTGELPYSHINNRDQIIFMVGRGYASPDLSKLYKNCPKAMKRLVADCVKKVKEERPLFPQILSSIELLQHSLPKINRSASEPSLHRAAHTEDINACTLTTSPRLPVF
# In short: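 Coupled pyruvate kinase/LDH assay tracking NADH oxidation at 340 nm, with 0.43 nM C-Raf, 30.1 nM MEK and 1 mM ATP in pH 7.5 Tris buffer (15 mM MgCl2, 1% DMSO final). Read continuously for 6 h at 30 °C, rate taken from the 4–5 h window. IC50 from four-parameter fit of percent inhibition.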
# Miapaca-2 cells [2] = test: MiaPaca-2 Cell Proliferation Assay (1); format: cell-based; settings: Homo sapiens, MIA PaCa-2, single agent, read-out: MiaPaca2 (1) IC50
# In short: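 Resazurin was added after compound exposure and incubated 5-6 h, then fluorescence read at 540 nm excitation and 600 nm emission to give IC50.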
# Miapaca-2 cells [3] = test: MiaPaca-2 Cell Proliferation Assay (2); format: cell-based; settings: Homo sapiens, MIA PaCa-2, single agent
# Method: MiaPaca-2 Cell Proliferation Assay (2)
# Miapaca-2 cells (catalog #CRL-1420) are obtained from the American Type Culture Collect (ATTC, Manassas, VA). Briefly, cells were grown in DMEM supplemented with 10% characterized fetal bovine serum (Invitrogen, Carlsbad, CA), 2.5% New Zealand sourced horse serum and 1% Penicillin/Streptomycin/L-Glutamine at 37° C., 5% CO2, and 95% humidity. Cells are expanded until reaching 70-95% confluency at which point they are sub-cultured or harvested for assay use. A serial dilution of test compound is dispensed into a 384-well black clear bottom plate in triplicate. Seven hundred fifty cells are added per well in 50 μL complete growth medium in the 384-well plate. Plates are incubated for 67-72 h at 37° C., 5% CO2, and 95% humidity. At the end of the incubation, 10 μL of a 440 μM solution of resazurin (Sigma, St. Louis, MO) in PBS is added to each well of the plate and plates are incubated for an additional 5-6 h at 37° C., 5% CO2, and 95% humidity. Plates are read on a Synergy2 or equivalent reader (Biotek, Winooski VT) using an excitation of 540 nm and an emission of 600 nm. Data is analyzed using Prism software (GraphPad, San Diego, CA) to calculate IC50 values.
SMILES,IC50 (H2405 cells),IC50 [1],IC50 (Miapaca-2 cells [2]),IC50 (Miapaca-2 cells [3])
COC(=O)Nc1cc(-c2cccc(-c3cc(NC(=O)c4ccnc(C(C)(C)F)c4)cnc3C)c2)ncn1 [Example 404],1 to 10 µM,≤ 0.1 µM,–,–
COC(=O)Nc1cc(-c2cncc(-c3cc(NC(=O)c4ccnc(C5(C#N)CC5)c4)ccc3C)c2)ncn1 [Example 405],≤ 0.1 µM,≤ 0.1 µM,0.5 to 1 µM,–
Cc1ncc(NC(=O)c2ccnc(C(C)(C)F)c2)cc1-c1cncc(-c2cc(NC(=O)C3CC3)ncn2)c1 [Example 406],≤ 0.1 µM,≤ 0.1 µM,0.5 to 1 µM,–
Cc1ncc(NC(=O)c2ccnc(C(C)(C)C#N)c2)cc1-c1cccc(-c2cnc3ccccn23)c1 [Example 407],0.5 to 1 µM,0.1 to 0.5 µM,–,–
CNC(=O)c1cc(-c2cncc(-c3cc(NC(=O)c4ccnc(C(C)(C)F)c4)c(F)cc3C)c2)ccn1 [Example 408],0.1 to 0.5 µM,≤ 0.1 µM,–,–
COC(=O)Nc1cc(-c2cnnc(-c3cc(NC(=O)c4cn(C(C)C)nn4)ccc3C)c2)ccn1 [Example 409],1 to 10 µM,0.1 to 0.5 µM,–,–
Cc1ncc(NC(=O)c2ccnc(C(C)(C)C#N)c2)cc1-c1cncc(-c2cc(NC(=O)C3CC3)ncn2)c1 [Example 410],0.1 to 0.5 µM,≤ 0.1 µM,1 to 10 µM,–
Cc1ccc(NC(=O)c2ccnc(C(C)(C)F)c2)cc1-c1cncc(-c2cc(N)ncn2)c1 [Example 411],0.1 to 0.5 µM,≤ 0.1 µM,1 to 10 µM,–
Cc1ccc(NC(=O)c2cn(C(C)C)nn2)cc1-c1cncc(-c2cc(NC(=O)C3CC3)ncn2)c1 [Example 412],≤ 0.1 µM,≤ 0.1 µM,0.5 to 1 µM,–
CNC(=O)c1cc(-c2cncc(-c3cc(NC(=O)c4ccnc(C(C)(C)F)c4)ccc3C)c2)ccn1 [Example 413],≤ 0.1 µM,≤ 0.1 µM,1 to 10 µM,–
COC(=O)Nc1cc(-c2cncc(-c3cc(NC(=O)c4ccnc(C(C)(C)C#N)c4)ccc3C)c2)ncn1 [Example 414],≤ 0.1 µM,≤ 0.1 µM,0.1 to 0.5 µM,–
COC(=O)Nc1cc(-c2cccc(-c3cc(NC(=O)Cn4cc(C(C)C)nn4)cnc3C)c2)ccn1 [Example 415],–,0.1 to 0.5 µM,–,–
COC(=O)Nc1cc(-c2cc(-c3cc(NC(=O)c4ccnc(C(C)(C)F)c4)ccc3C)nc(C)n2)ccn1 [Example 416],0.1 to 0.5 µM,≤ 0.1 µM,0.5 to 1 µM,–
Cc1ccc(NC(=O)c2ccnc(C(C)(C)F)c2)cc1-c1cncc(-c2ccnc(NC(=O)C3CC3)c2)c1 [Example 417],≤ 0.1 µM,≤ 0.1 µM,0.5 to 1 µM,–
Cc1cc(F)c(NC(=O)c2ccnc(C(C)(C)C#N)c2)cc1-c1cncc(-c2ccnc(NC(=O)C3CC3)c2)c1 [Example 418],≤ 0.1 µM,≤ 0.1 µM,0.1 to 0.5 µM,–
Cc1ccc(NC(=O)c2ccnc(C(C)(F)F)c2)cc1-c1cncc(-c2cc(NC(=O)C3CC3)ncn2)c1 [Example 419],≤ 0.1 µM,≤ 0.1 µM,0.1 to 0.5 µM,–
Cc1ccc(NC(=O)c2ccnc(C(C)(C)C#N)c2)cc1-c1cncc(-c2cc(NC(=O)C(C)C)ncn2)c1 [Example 420],≤ 0.1 µM,≤ 0.1 µM,–,–
Cc1ccc(NC(=O)c2cc(C3CC3)on2)cc1-c1cncc(-c2cc(NC(=O)C3CC3)ncn2)c1 [Example 421],≤ 0.1 µM,≤ 0.1 µM,1 to 10 µM,–
Cc1ccc(NC(=O)c2ccnc(C(C)(C)C#N)c2)cc1-c1cncc(-c2cc(N)ncn2)c1 [Example 422],0.1 to 0.5 µM,≤ 0.1 µM,–,–
Cc1cc(F)c(NC(=O)c2ccnc(C(C)(C)F)c2)cc1-c1cncc(-c2cc(NC(=O)C3CC3)ncn2)c1 [Example 423],–,≤ 0.1 µM,–,–
Cc1cc(F)c(NC(=O)c2ccnc(C(C)(C)C#N)c2)cc1-c1cncc(-c2cc(NC(=O)C3CC3)ncn2)c1 [Example 424],–,≤ 0.1 µM,–,–
COC(=O)Nc1cc(-c2cncc(-c3cc(NC(=O)c4ccnc(C(C)(C)F)c4)ccc3C)c2)ncn1 [Example 425],≤ 0.1 µM,≤ 0.1 µM,–,–
CNC(=O)c1cc(-c2nccc(-c3cc(NC(=O)c4ccnc(C(C)(C)F)c4)c(F)cc3C)n2)ccn1 [Example 427],0.1 to 0.5 µM,≤ 0.1 µM,1 to 10 µM,–
CNC(=O)c1cc(-c2cc(-c3cc(NC(=O)c4ccnc(C(C)(C)F)c4)ccc3C)nc(C)n2)ccn1 [Example 428],0.1 to 0.5 µM,0.1 to 0.5 µM,–,–
Cc1ccc(NC(=O)c2ccnc(C(F)F)c2)cc1-c1cncc(-c2cc(NC(=O)C3CC3)ncn2)c1 [Example 429],≤ 0.1 µM,≤ 0.1 µM,–,–

SMILES,IC50 (H2405 cells),IC50 [1],IC50 (Miapaca-2 cells [2]),IC50 (Miapaca-2 cells [3])
Cc1ccc(NC(=O)c2cnn(C3CC3)c2)cc1-c1cncc(-c2cc(NC(=O)C3CC3)ncn2)c1 [Example 430],0.1 to 0.5 µM,≤ 0.1 µM,1 to 10 µM,–
Cc1ccc(NC(=O)c2cc(C(C)(C)C)on2)cc1-c1cncc(-c2cc(NC(=O)C3CC3)ncn2)c1 [Example 431],≤ 0.1 µM,≤ 0.1 µM,1 to 10 µM,–
Cc1ccc(NC(=O)c2ccnc(C(C)(C)F)c2)cc1-c1cncc(-c2ccnc3c2CC(=O)N3)c1 [Example 432],–,≤ 0.1 µM,–,–
Cc1ncc(NC(=O)c2ccnc(C(C)(C)F)c2)cc1-c1cncc(-c2ccnc(NC(=O)C3CC3)c2)c1 [Example 433],–,≤ 0.1 µM,0.5 to 1 µM,–
Cc1ccc(NC(=O)c2ccnc(C(C)C)c2)cc1-c1cncc(-c2cc(NC(=O)C3CC3)ncn2)c1 [Example 434],–,≤ 0.1 µM,0.1 to 0.5 µM,–
COC(=O)Nc1cc(-c2cncc(-c3cc(NC(=O)c4ccnc(C(C)(C)F)c4)ccc3C)c2)ccn1 [Example 435],≤ 0.1 µM,≤ 0.1 µM,0.5 to 1 µM,–
Cc1ccc(NC(=O)c2cc(C3CC3)n(C)n2)cc1-c1nccc(-c2ccnc(NC(=O)C3CC3)c2)n1 [Example 436],≤ 0.1 µM,≤ 0.1 µM,1 to 10 µM,–
CNC(=O)c1cc(-c2cc(-c3cc(NC(=O)c4ccnc(C(C)(C)C#N)c4)ccc3OC)ccn2)ccn1 [Example 437],0.1 to 0.5 µM,≤ 0.1 µM,1 to 10 µM,–
COc1ccc(NC(=O)c2ccnc(C(C)(C)C#N)c2)cc1-c1cccc(-c2cc(NC(=O)C3CC3)ncn2)c1 [Example 438],0.1 to 0.5 µM,≤ 0.1 µM,1 to 10 µM,–
CNC(=O)c1cc(-c2cncc(-c3cc(NC(=O)c4ccnc(C(C)(F)F)c4)ccc3C)c2)ncn1 [Example 439],–,–,–,1 to 10 µM
CNC(=O)c1cc(-c2cncc(-c3cc(NC(=O)c4ccnc(C(C)(F)F)c4)ccc3C)c2)ccn1 [Example 440],–,–,–,1 to 10 µM
CNC(=O)c1cc(-c2cc(-c3cc(NC(=O)c4ccnc(C(C)(F)F)c4)ccc3C)ccn2)ccn1 [Example 441],–,–,–,1 to 10 µM
CNC(=O)c1cc(-c2cncc(-c3cc(NC(=O)c4ccnc(C(C)(C)C#N)c4)ccc3C)c2)ccn1 [Example 442],–,–,–,0.5 to 1 µM
CNC(=O)c1cc(-c2cc(-c3cc(NC(=O)c4ccnc(C(C)C)c4)ccc3C)ccn2)ccn1 [Example 443],–,–,–,0.5 to 1 µM
CNC(=O)c1cc(-c2cncc(-c3cc(NC(=O)c4ccnc(C(C)C)c4)ccc3C)c2)ccn1 [Example 445],–,–,–,1 to 10 µM
CNC(=O)c1cc(-c2cncc(-c3cc(NC(=O)c4ccnc(C(C)C)c4)ccc3C)c2)ncn1 [Example 446],–,–,–,1 to 10 µM
Cc1ccc(NC(=O)c2ccnc(C(C)C)c2)cc1-c1ccnc(-c2ccnc(NC(=O)C3CC3)c2)c1 [Example 467],–,–,–,0.5 to 1 µM
Cc1ncc(NC(=O)c2ccnc(C(C)C)c2)cc1-c1ccnc(-c2ccnc(NC(=O)C3CC3)c2)c1 [Example 468],–,–,–,0.5 to 1 µM
CNC(=O)c1cc(-c2cc(-c3cc(NC(=O)c4ccnc(C(C)(C)F)c4)ccc3C)c(F)cn2)ccn1 [Example 469],–,–,–,1 to 10 µM
CNC(=O)c1cc(-c2cc(-c3cc(NC(=O)c4ccnc(C(C)(C)F)c4)ccc3C)cc(C)n2)ccn1 [Example 470],–,–,–,1 to 10 µM
Cc1ccc(NC(=O)c2ccnc(C(C)(C)F)c2)cc1-c1ccnc(-c2ccnc(C(N)=O)c2)c1 [Example 476],–,–,–,1 to 10 µM
CNC(=O)c1cc(-c2cc(-c3cc(NC(=O)c4ccnc(C(C)(C)F)c4)ccc3F)ccn2)ccn1 [Example 479],–,–,–,1 to 10 µM
CNC(=O)c1cc(-c2cc(-c3cc(NC(=O)c4ccnc(C(C)(C)F)c4)cc(F)c3C)ccn2)ccn1 [Example 480],–,–,–,1 to 10 µM
CNC(=O)c1cc(-c2cc(-c3cc(NC(=O)c4ccnc(C(C)(C)F)c4)c(F)cc3F)ccn2)ccn1 [Example 482],–,–,–,1 to 10 µM
Cc1cc(-c2cc(NC(=O)c3ccnc(C(C)(C)F)c3)ccc2C)cc(-c2ccnc(C(N)=O)c2)n1 [Example 484],–,–,–,1 to 10 µM
